Measured values as given in patent US20110053900A1, “PROGESTERONE ANTAGONISTS SUCH AS CDB-4124 IN THE TREATMENT OF BREAST CANCER” (Repros Therapeutics inc, priority 2008, published 2011).

Tests used:
[1] = target: T1, glucocorticoid receptor (rbGR) (Oryctolagus cuniculus, UniProt P59667); test: Glucocorticoid receptor binding; design: species or system rabbit
T1 construct: cytosol containing PR or GR were prepared in TEGMD buffer; from tissue; host or cells: thymus of estradiol-primed immature rabbits (cytosol)
T1 sequence (P59667 1-772): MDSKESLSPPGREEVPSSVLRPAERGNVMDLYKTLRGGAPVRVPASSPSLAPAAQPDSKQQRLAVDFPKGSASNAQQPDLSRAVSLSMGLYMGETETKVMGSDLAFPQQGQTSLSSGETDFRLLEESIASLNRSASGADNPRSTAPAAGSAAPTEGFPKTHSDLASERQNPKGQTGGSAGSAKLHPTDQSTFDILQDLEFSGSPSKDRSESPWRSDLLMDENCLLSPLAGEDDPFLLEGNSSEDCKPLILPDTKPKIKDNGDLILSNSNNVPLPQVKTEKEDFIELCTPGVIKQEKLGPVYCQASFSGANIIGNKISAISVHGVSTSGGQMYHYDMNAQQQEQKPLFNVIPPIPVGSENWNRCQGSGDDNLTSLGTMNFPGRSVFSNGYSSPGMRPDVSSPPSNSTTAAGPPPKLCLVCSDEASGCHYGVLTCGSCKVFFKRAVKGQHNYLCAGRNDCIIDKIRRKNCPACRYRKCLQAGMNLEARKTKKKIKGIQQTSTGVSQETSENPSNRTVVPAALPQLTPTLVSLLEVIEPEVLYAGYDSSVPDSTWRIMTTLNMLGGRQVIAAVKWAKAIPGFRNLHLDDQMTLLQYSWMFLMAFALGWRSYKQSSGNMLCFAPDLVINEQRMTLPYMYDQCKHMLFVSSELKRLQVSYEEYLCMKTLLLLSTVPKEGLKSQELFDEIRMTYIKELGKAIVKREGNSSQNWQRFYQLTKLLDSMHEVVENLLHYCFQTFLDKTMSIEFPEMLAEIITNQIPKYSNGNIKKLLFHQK
Description: Certain antiprogestins were tested in receptor-binding assays for their ability to bind rabbit progesterone receptor (rbPR) and glucocorticoid receptor (rbGR). […] For PR binding, the cytosol was incubated with 6 nM 1,2-[^3H]progesterone (50.0 Ci/mmole) and competitors were added at concentrations from 2 to 100 nM. For binding to GR, the cytosol was incubated with 6 nM 6,7-[^3H]-dexamethasone (40 Ci/mmol) and test compounds were added at concentrations from 20 to 100 nM. After overnight incubation at 4° C., bound and unbound [^3H] steroids were separated by addition of dextran-coated charcoal and centrifugation at 2100×g for 15 min at 4
C. Supernatants containing the [3H]-steroid receptor complexes were decanted into vials containing 4 ml Optifluor (Packard Instrument Co.), vortexed, equilibrated in a liquid scintillation counter for 30 minutes and then counted for 2 minutes. […] The standards for the PR and GR assays were unlabeled progesterone and dexamethasone, respectively.

rabbit uterus = test: Anti-McGinty and anti-Clauberg assays; type: in vivo; conditions: average of anti-McGinty and anti-Clauberg results relative to CDB-2914 = 1.00
Excerpt: Also given in the Table are the relative biological activities of the same compounds in the rabbit uterus by the anti-McGinty and anti-Clauberg assays. Compound CDB-2914 (listed at the end of the Table) was used as the control or reference compound (rabbit Biological Activity=1.00) for these experiments because results of experiments using CDB-2914 have been published before (Hild-Petito et al., 1996; Passaro et al., 1997; Reel et al., 1998; Lamer et al., 2000). For the anti-McGinty test, immature female rabbits received a subcutaneous injection of 5 μg estradiol in 10% ethanol/sesame oil daily for 6 consecutive days. On day 7, animals underwent sterile abdominal surgery to ligate a 3-4 cm segment of both uterine horns. The test compound in appropriate solvent was injected intraluminally into the ligated segment of one uterine horn and vehicle alone into the other. A stimulating dose of progesterone (267 μg/day) was administered subcutaneously to each rabbit daily for the next three days to induce endometrial proliferation. All animals were sacrificed at day 10 for removal of the uterus where a segment central to the ligatures was removed and fixed in 10% neutral buffered formalin and submitted for histological processing. Five micron sections stained with hematoxylin and cosin were evaluated microscopically for the degree of endometrial glandular proliferation. The percent inhibition of endometrial proliferation for each rabbit was calculated and the mean of the group of five animals recorded. For the Anti-Clauberg test, immature female rabbits received a subcutaneous injection of 5 μg estradiol in 10% ethanol/sesame oil daily for 6 consecutive days. On day 7, animals received progesterone by subcutaneous injection (160 μg/day) and the experimental compound in appropriate vehicle orally or subcutaneously for five consecutive days. One group of rabbits received progesterone only. Twenty-four hours after the last dose, all animals were sacrificed for removal of the uterus which was cleaned of all fat and connective tissue, weighed to the nearest 0.2 mg and placed in 10% neutral buffered formalin for subsequent histological processing. Five micron sections stained with hematoxylin and eosin were evaluated microscopically for the degree of endometrial glandular proliferation. The percent inhibition of endometrial proliferation at each dose level of the test compound was derived by comparison with progesterone-stimulated animals alone. The data presented in Table 1 (rabbit Biol. Act.) reflects the average of the results obtained for each compound by the anti-McGinty and anti-Clauberg assays relative to CDB-2914.

[2] = tested on: rabbit progesterone receptor (rbPR) and glucocorticoid receptor (rbGR); test: Receptor-binding assays, ratio of relative binding affinities rbPR/rbGR; conditions: RBA = EC50 of standard/EC50 of test compound x 100
Description: Certain antiprogestins were tested in receptor-binding assays for their ability to bind rabbit progesterone receptor (rbPR) and glucocorticoid receptor (rbGR). Briefly, cytosol containing PR or GR were prepared in TEGMD buffer (10 mM Tris, pH 7.2, 1.5 mM EDTA, 0.2 mM sodium molybdate, 10% glycerol, 1 mM DTT) from uterus or thymus, respectively, of estradiol-primed immature rabbits. For PR binding, the cytosol was incubated with 6 nM 1,2-[^3H]progesterone (50.0 Ci/mmole) and competitors were added at concentrations from 2 to 100 nM. For binding to GR, the cytosol was incubated with 6 nM 6,7-[^3H]-dexamethasone (40 Ci/mmol) and test compounds were added at concentrations from 20 to 100 nM. After overnight incubation at 4° C., bound and unbound [^3H] steroids were separated by addition of dextran-coated charcoal and centrifugation at 2100×g for 15 min at 4
C. Supernatants containing the [3H]-steroid receptor complexes were decanted into vials containing 4 ml Optifluor (Packard Instrument Co.), vortexed, equilibrated in a liquid scintillation counter for 30 minutes and then counted for 2 minutes. The ECso (Effective Concentration) for each standard curve and each of the compound curves was determined by entering the counting data into a four parameter sigmoidal computer program (RiaSmart® Immunoassay Data Reduction Program, Packard Instrument Co., Meriden, Conn.). Relative binding affinity (RBA) for each compound was calculated using the following equation: EC50 of standard/EC50 of test compound×100. The standards for the PR and GR assays were unlabeled progesterone and dexamethasone, respectively. The results of these experiments are summarized in Table 1, as a ratio of the relative binding affinities of each compound for the rbPR and rbGR receptors (rbPR/rbGR).

CC(=O)O[C@]1(C(C)=O)CC[C@H]2[C@@H]3CCC4=CC(=O)CCC4=C3[C@@H](c3ccc(N(C)C)cc3)C[C@@]21C [CDB-2914, 17α-acetoxy-11β-(4-N,N-dimethylaminophenyl)-19-norpregna-4,9-dien-3,20-dione, reference compound]
anti-glucocorticoid receptor activity / glucocorticoid receptor binding (in words) [1]: moderately active in glucocorticoid receptor binding | rabbit Biol. Act. (rabbit uterus): 1.00 | rbPR/rbGR (ratio of the relative binding affinities for rbPR and rbGR) [2]: 1.07
